Assay results taken from patent EP3613735A1, “NOVEL SIRT 1 ACTIVATOR AND MEDICINAL USE THEREOF” (Pusan National University Industry - University Cooperation …, priority 2017, dated 2018).

Experiments:
Assay type in all cases: in vivo, mouse
CPT1 and ACOX1 = assay: Liver mRNA expression of fat oxidation related genes, quantitative real-time PCR; conditions: db/db mice, oral 5 mg/kg daily for 4 weeks, treated vs db/db group
Description: (§1) Since obesity and insulin resistance are representative diseases directly related to the development of non-alcoholic fatty liver, the improvement effect of Compound 32u on fatty liver was analyzed. Compound 32u was orally administered to db/db mice (9 weeks old) at a concentration of 5 mg/kg daily for 4 weeks. First, the accumulation of fat in the liver, the most representative phenotype, was measured. Briefly, about 50 mg of liver was quantified in cold phosphate buffered saline (PBS) or 0.9% sodium chloride (NaCl) and crushed, followed by treating with mixed solvent of chloroform and methanol (MeOH) in a volume ratio of 2:1 and reacted for 2 hours. […] Thereafter, the amount of neutral fat was measured by absorbance using a neutral fat measurement kit (Stanbio laboratory, TX USA). In order to confirm the corresponding mechanism, mRNA expression of genes related to fat synthesis and degradation was analyzed. […] For the synthesized cDNA, a quantative real-time polymerase chain reaction (quantative real-time PCR) was performed to target the desired gene as a primer and quantify it in real time. Since obesity and insulin resistance are representative diseases directly related to the development of non-alcoholic fatty liver, the improvement effect of Compound 70c on fatty liver was analyzed. […] First, the accumulation of fat in the liver, the most representative phenotype, was measured. […]

p-IRE = assay: Liver endoplasmic reticulum stress marker, Western blot; conditions: db/db mice, oral treatment
Description: The cause of non-alcoholic liver disease (NAFLD) is unclear, but recent studies report that endoplasmic reticulum (ER) stress can be involved in fatty liver development and progression to non-alcoholic fatty hepatitis. Thus, in order to analyze the effect of Compound 32u on endoplasmic reticulum stress-related marker (p-IRE) was identified by Western blot. Briefly, about 50 mg of liver was quantified, homogenated and lysed to extract proteins. After quantifying the extracted protein and loading the same amount thereof in the polyacrylamide gel, the protein was separated according to molecular weight through SDS-PAGE (sodium dodecyl sulfate-polyacrylamide gel electrophoresis). Proteins separated according to molecular weight were transferred to a membrane by applying an electric field, and the desired protein was detected using a specific antibody. After reacting the primary antibody that specifically binds to the protein to be detected for at least 12 hours, the secondary antibody that specifically binds to the primary antibody is reacted for 1 hour, and the expression of the protein can be analyzed by treating the developer liquid containing the substrate HRP (horse radish peroxidase) present in the secondary antibody. […] Briefly, about 50 mg of liver was quantified, homogenated and lysed to extract proteins. […]

db/db mice = assay: Glucose tolerance test and fasting blood glucose in obese animal model; conditions: for fasting blood glucose: oral 5 mg/kg daily, compared to db/db mouse group; for glucose tolerance (blood glucose concentration): three weeks after oral administration of 5 mg/kg daily, glucose 2 g/kg intraperitoneally after 12 hours fasting
Description: The metabolic disease control ability of Compound 32u was analyzed using db/db mice lacking an appetite-regulating hormone leptin receptor as an obese animal model. Compound 32u was orally administered to db/db mice (9 weeks old) at a concentration of 5 mg/kg daily for 4 weeks. Three weeks after oral administration of Compound 32u, a glucose tolerance test was performed. Mice were fasted for 12 hours or more, and glucose (2 g/kg) was injected intraperitoneally, and blood from the tail of the mouse was measured for blood glucose at each time using a glucometer ([…]). The metabolic disease control ability of Compound 70c was analyzed using db/db mice lacking an appetite-regulating hormone leptin receptor as an obese animal model. Compound 70c was orally administered to db/db mice (9 weeks old) at a concentration of 5 mg/kg daily for 4 weeks. Three weeks after oral administration of Compound 70c, a glucose tolerance test was performed. Mice were fasted for 12 hours or more, and glucose (2 g/kg) was injected intraperitoneally, and blood from the tail of the mouse was measured for blood glucose at each time using a glucometer ([…]).

[1] = tested on: FASN, ACC, SREBP-1a, SREBP-1c and SREBP-2; assay: Liver mRNA expression of fat synthesis genes, quantitative real-time PCR; conditions: db/db mice, oral 5 mg/kg daily for 4 weeks
Description: as §1

Compound: Cl.O=C(Nc1ccccc1-c1cc2ccc(CN3CCNCC3)cc2o1)c1ccc2ccccc2c1 [Compound 32u, N-(2-(6-(Piperazin-1-ylmethyl)benzofuran-2-yl)phenyl)-2-naphthamide hydrochloride]
- expression of fat oxidation related genes (CPT1 and ACOX1) (CPT1 and ACOX1): not significantly different
- protein expression of endoplasmic reticulum stress-related markers (p-IRE) (p-IRE): significantly reduced
- fasting blood glucose (db/db mice): reduced
- glucose tolerance (blood glucose concentration) (db/db mice): glucose tolerance was restored
- expression of fat synthesis genes (FASN, ACC, SREBP-1a, SREBP-1c and SREBP-2) [1]: significantly reduced

Compound: O=C(Nc1ccccc1-c1nc2cc(CN3CCN(C4CCCCC4)CC3)ccc2o1)c1ccc2ccccc2c1 [Compound 70c, N-(2-(5-((4-Cyclohexylpiperazin-1-yl)methyl)benzo[d]oxazol-2-yl)phenyl)-2-naphthamide]
- expression of fat oxidation related genes (CPT1 and ACOX1) (CPT1 and ACOX1): not significantly different
- protein expression of endoplasmic reticulum stress-related markers (p-IRE) (p-IRE): significantly reduced
- fasting blood glucose (db/db mice): reduced
- glucose tolerance (blood glucose concentration) (db/db mice): glucose tolerance was restored
- expression of fat synthesis genes (FASN, ACC, SREBP-1a, SREBP-1c and SREBP-2) [1]: significantly reduced
